# In ChEMBL document CHEMBL1148532, “Role of Tyr(356(7.43)) and Ser(190(4.57)) in antagonist binding in the rat beta1-adrenergic receptor” (J Med Chem, 2006):
# Assays:
# [1] = biological target: Beta-1 adrenergic receptor (Rattus norvegicus, UniProt P18090, Y356A)
# [2] = biological target: Beta-1 adrenergic receptor (Rattus norvegicus, UniProt P18090, Y356F)
# [3] = biological target: Beta-1 adrenergic receptor (Rattus norvegicus, UniProt P18090, W134A)
# [4] = biological target: Beta-1 adrenergic receptor (Rattus norvegicus, UniProt P18090)
# Chain of Beta-1 adrenergic receptor (Rattus norvegicus, UniProt P18090) (P18090 whole entry): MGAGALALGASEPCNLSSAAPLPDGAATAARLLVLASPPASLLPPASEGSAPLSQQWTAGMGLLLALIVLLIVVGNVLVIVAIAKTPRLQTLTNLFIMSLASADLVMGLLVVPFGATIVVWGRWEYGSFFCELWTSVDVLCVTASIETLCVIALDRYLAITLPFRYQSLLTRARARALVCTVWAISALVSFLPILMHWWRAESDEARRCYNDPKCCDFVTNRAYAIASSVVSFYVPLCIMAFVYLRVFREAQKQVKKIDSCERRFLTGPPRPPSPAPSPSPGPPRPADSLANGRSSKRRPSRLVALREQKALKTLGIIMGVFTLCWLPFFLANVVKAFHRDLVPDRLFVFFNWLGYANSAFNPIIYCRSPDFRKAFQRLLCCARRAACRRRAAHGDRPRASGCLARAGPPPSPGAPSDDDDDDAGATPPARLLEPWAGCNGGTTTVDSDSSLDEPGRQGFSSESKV
# Description: Antagonist activity at rat wild type beta-1 adrenergic receptor expressed in CHO cells
# [5] = biological target: Beta-1 adrenergic receptor (Rattus norvegicus, UniProt P18090, S190A)
# Chain of Beta-1 adrenergic receptor (Rattus norvegicus, UniProt P18090, S190A) (P18090 whole entry S190A): as the sequence (P18090 whole entry) above, with S190A counted along it
# Chain of Beta-1 adrenergic receptor (Rattus norvegicus, UniProt P18090, Y356F) (P18090 whole entry Y356F): as the sequence (P18090 whole entry) above, with Y356F counted along it
# Chain of Beta-1 adrenergic receptor (Rattus norvegicus, UniProt P18090, W134A) (P18090 whole entry W134A): as the sequence (P18090 whole entry) above, with W134A counted along it
# Chain of Beta-1 adrenergic receptor (Rattus norvegicus, UniProt P18090, Y356A) (P18090 whole entry Y356A): as the sequence (P18090 whole entry) above, with Y356A counted along it
SMILES,Ki [1] [nM],Ki [2] [nM],Ki [3] [nM],Ki [4] [nM],Ki [5] [nM],Kd [1] [nM],Kd [2] [nM],Kd [3] [nM],Kd [4] [nM],Kd [5] [nM]
CCOCCOc1ccc(OC[C@@H](O)CNCCc2ccc(OC)c(OC)c2)cc1,794,100,79.4,50.1,12600,–,–,–,–,–
CC(C)(C)NCC(O)COc1cccc2[nH]c(C#N)c(I)c12 (stereo not given),–,–,–,–,–,0.316,0.0794,0.0631,0.0631,0.0631
Cn1cc(C(F)(F)F)nc1-c1ccc(OCC(O)CNCCOc2ccc(O)c(C(N)=O)c2)cc1 (stereo not given) [CGP-20712A],10000,2,7.94,1.26,794,–,–,–,–,–
CC(C)(C)NCC(O)COc1cccc2[nH]c(C#N)cc12 (stereo not given) [CYANOPINDOLOL],316,0.0398,0.126,0.0501,0.316,–,–,–,–,–
N#Cc1cc(OCCOCC2CC2)ccc1OCC(O)CNCCNC(=O)Nc1ccc(O)cc1 (stereo not given) [LK-204545],79400,79.4,63.1,7.94,100,–,–,–,–,–
